Tests used:
[1] = tested on: AU-RNA (poly A-poly U; rArU-RNA) (RNA, polymer) A/U; test: CD titration, Scatchard; details: Na+ (sodium cacodylate, I = 0.05 M); sodium cacodylate pH 7.0, 25 °C; Scatchard n fixed 0.2 per phosphate; per base
[2] = tested on: AU-RNA (poly A-poly U; rArU-RNA) (RNA, polymer) A/U; test: UV thermal melting, 260 nm; details: Na+ (sodium cacodylate, I = 0.05 M); sodium cacodylate pH 7.0; r[compound]/[polynucleotide] = 0.1, polynucleotide 25 µM (phosphate); per base

c1cc2ccc3ccc(CNCCCNCCN(CCNCCCNCc4ccc5ccc6cccc7ccc4c5c67)CCNCCCNCc4ccc5ccc6cccc7ccc4c5c67)c4ccc(c1)c2c34
logKs [1]: 6.5 log(M^-1) | ∆Tm [2]: 3.7 ± 0.5 °C
